Assay results taken from patent US4347319A, “Microbiological epoxidation process” (priority 1980, dated 1982).
Entries after “also recorded” stand apart in the source; their conditions may differ.

Legend:
Type in all cases: biochemical
[1] = system: cell-free soluble extracts of C1 -utilizing microbes (secondary alcohol dehydrogenase); test: Cofactor requirement of cell-free SADH systems
Method: Catalytic activity was also assayed by fluorescence spectrophotometry.

[2] = system: purified secondary alcohol dehydrogenase from Pichia sp. NRRL Y-11,328; test: Substrate specificity, electron acceptor and stoichiometry of purified yeast SADH
[3] = system: purified secondary alcohol dehydrogenase (SADH) from Pseudomonas sp. ATCC 21439; test: Effect of metal-chelating agents and thio reagents on purified SADH; details: final concentration of 1 mM; measured spectrofluorometrically
Method: Secondary alcohol dehydrogenase (SADH) from an obligate methanol utilizer, Pseudomonas sp. ATCC 21439 was purified as follows. […] 0.05 M sodium phosphate buffer, pH 7.0 with 0.5 mM dithiothretol (buffer A) and were disrupted sonically (5×1 min.). The crude extract was separated by centrifugation. The crude extract was heat-treated at 50° C. in a water bath for 10 minutes. The resulting precipitate was removed by centrifugation. To the supernatant solution, 25 ml of protamine sulfate solution (2% solution in 0.1 M Tris base) was added dropwise with continuous stirring. After standing for 30 minutes, the extract was centrifuged. The supernatant solution was fractionated with solid ammonium sulfate. […] This DEAE-cellulose eluate was concentrated by ammonium sulfate fractionation. Material precipitating between 30 and 50% ammonium sulfate saturation was collected by centrifugation and dialyzed overnight against A. This fraction was further washed and filtered through an Amicon unit with XM 50 membrane. The concentrated fraction (6 ml) inside the Amicon unit was applied to an Affi-Gel Blue column (0.8 cm×18 cm) which had been equilibrated with buffer A for affinity chromatography. The column was washed overnight with buffer A (0.18 ml./min.) and then was eluted with buffer A containing 5 mM NAD. Each 1 ml. fraction was collected.
The purified secondary alcohol dehydrogenase enzyme (SADH) may be used directly for converting C3 -C6 secondary alcohols to the corresponding methyl ketones by the procedures described above; however, a source of NAD^+ must be added to the reaction medium. One can determine the NAD-linked secondary alcohol dehydrogenase activity with a fluorescence spectrophotometer (Perkin Elmer, Model MPF 44A) by following the formation of reduced NAD (Ex 340 nm, Em 460 nm). The assay system (3 ml.) will typically contain: sodium phosphate buffer pH 7.0, 150 μmol; NAD 1.0 μmol; a given amount of enzyme preparation; and 20 μmol secondary alcohol. The reaction is started by the addition of secondary alcohol. One unit of SADH enzyme activity represents the reduction of one nmole NAD per minute.
The effect of metal-chelating agents and chioreagents on the activity of the purified SADH enzyme were studied. […] The possibility of ethanol or n-propanol as an inhibitor was studied.

[4] = system: P(40) particulate fraction of Methylosinus sp. (CRL-15, NRRL B-11,202); test: Effect of inhibitors on propylene epoxidation and methane hydroxylation; details: inhibitor 10^-3 M; P(40) fraction
Method: (§1) The oxidation of methane and propylene by particulate [(P)40 and (P)80] fractions and soluble [S(80)] fraction was measured at 30° C. by estimating the production of methanol and propylene oxide, respectively. The reaction mixtures contained in […]: 150 mM potassium phosphate buffer, pH 7.0 containing 5 mM MgCl2 b, 0.6 ml; 10μ moles NADH, and cellular fraction.
(§2) Reaction mixtures were contained in 10 ml vials at 4° C. Vials were sealed with rubber caps. The gaseous phase in the vials was removed using vacuum and then was replaced with a gas mixture of methane or propylene and oxygen at a 1:1, v/v ratio. Oxidation of other gaseous n-alkanes and n-alkanes was examined as described above. For liquid substrates, 10 μl of substrate was used directly. Vials were then incubated at 30° C. on a rotary shaker at 200 RPM.
It has been reported that the oxidation of methane by cell suspensions of methane-utilizing bacteria was inhibited by various metal-binding or metal-chelating agents (Patel et al., J. Bacteriol. 126: 1017-1019 (1976)). […] (CRL-15, NRRL B-11,202) was examined.

[5] = system: cell-free particulate fractions derived from the methylotrophic microorganisms; test: Inhibition of conversion of C3 -C6 n-alkanes to sec. alcohols; details: oxygen and NADH present
Description: The conditions for preparing the cell suspensions or the cell-free particulate fractions from methane-grown methylotroph microorganisms is the same as described above.

[6] = system: purified secondary alcohol dehydrogenase from Pichia sp. NRRL Y-11,328; test: Inhibitors of purified yeast SADH; details: primary alcohols tested at 10^-3 M
Method: Large scale cultures of Pichia sp. NRRL Y-11,328 were grown with aeration at 30° C. in a 14-liter New Brunswick f fermentor in a mineral salt medium containing methanol (0.4%, v/v) as the sole carbon source. The cells (200 g., wet weight) were suspended in […] sodium phosphate buffer, pH 7.0, containing 1 mM dithiothreitol (buffer A), and crude extracts were prepared as described previously. To the crude extracts, 18 ml. of protamine sulfate solution [2% solution in 0.1 M tris (hydroxymethyl) aminomethane (tris) base] was added dropwise with continuous stirring. After standing for 30 min., the extracts were centrifuged at 20,000×g. for 60 min. The supernatant solution was fractionated with solid ammonium sulfate. Extracts were brought to 50% of saturation with respect to ammonium sulfate by addition of 313 g. of the salt per liter of extract. Precipitated proteins was removed by centrifugation, and 137 g. of ammonium sulfate was added per liter of the supernatant liquid to bring it to 70% of saturation. Material precipitating between 50 and 70% of saturation was collected by centrifugation and dissolved in buffer A. This preparation was dialyzed overnight against buffer A, and the dialyzed material was applied to a DEAE-cellulose column (5×40 cm) that had been equilibrated with buffer A. The sample was washed with 200 ml. of buffer A and eluted with 2 liters of buffer A that contained NaCl in a linear gradient running from a concentration of 0 to 0.5 M. Fractions of 15 ml. were collected. Fractions containing secondary alcohol dehydrogenase activity were pooled and were termed DEAE-cellulose eluate. The DEAE-cellulose eluate was concentrated by ammonium sulfate fractionation.
Secondary alcohol dehydrogenase activity was measured spectrophotometrically at 340 nm with a NAD^+ as an electron acceptor. The reaction mixture, in a total 3.0 ml., contained 50 mM phosphate buffer, pH 8,0, 5 μ moles NAD^+, crude extracts, and substrate. The reactions were started by addition of 100 µl of 0.1 M substrate and the rate of NAD^+ reduction was measured. Protein concentration was determined by the method of Lowry et al.
Various primary alcohols not oxidized by secondary alcohol dehydrogenase were tested as potential inhibitors of enzyme activity.

[7] = system: P(40) particulate fraction of Methylosinus sp. (CRL-15, NRRL B-11,202); test: Effect of metals on propylene epoxidation and methane hydroxylation; details: metal 10^-3 M, P(40) fraction
Method: as §1
as §2, with “directly.” for “directly. Vials were then incubated at 30° C. on a rotary shaker at 200 RPM.”
Since the methane mono-oxygenase from methane-utlizing bacteria is a copper or iron-containing protein (Tonge et al., J. Biochem., 161: 333-344 (1977)), we have examined the effect of copper and iron salts on the oxidation of methane and propylene by the P(40) particulate fraction of Methylosinus sp. (CRL-15, NRRL B-11,202). The rate of hydroxylation of methane to methanol and epoxidation of propylene to propylene oxide was increased twofold in the presence of added copper salts (Table XII).

SMILES: NC(=O)C1=CN([C@@H]2O[C@H](COP(=O)(O)OP(=O)(O)OC[C@H]3O[C@@H](n4cnc5c(N)ncnc54)[C@H](OP(=O)(O)O)[C@@H]3O)[C@@H](O)[C@H]2O)C=CC1 [NAD(P)H]
- effectiveness as cofactor for oxidation of secondary alcohols [1]: not effective

SMILES: Cc1cc2nc3c(=O)[nH]c(=O)nc-3n(C[C@H](O)[C@H](O)[C@H](O)COP(=O)(O)OP(=O)(O)OC[C@H]3O[C@@H](n4cnc5c(N)ncnc54)[C@H](O)[C@@H]3O)c2cc1C [FAD, flavin adenine dinucleotide]
- electron acceptor / carrier [2]: could not act as electron carrier
- effectiveness as cofactor for oxidation of secondary alcohols [1]: not effective

SMILES: NC(N)=S [Thiourea]
- % inhibition of SADH activity [3]: 0%
- % Inhibition, Methane-Hydroxylating Activity [4]: 98%
- % Inhibition, Propylene-Epoxidizing Activity [4]: 98%
- inhibition of conversion of n-alkanes to sec. alcohols [5]: inhibited

SMILES: O=C(O)c1cc[c]([Hg+])cc1.[OH-] [p-hydroxymercuribenzoate]
- inhibition of secondary alcohol dehydrogenase activity [6]: strongly inhibited
- % inhibition of SADH activity [3]: 100%

SMILES: N[C@@H](CCC(=O)N[C@@H](CS)C(=O)NCC(=O)O)C(=O)O [glutathione]
- inhibition of secondary alcohol dehydrogenase activity [6]: strongly inhibited
- effectiveness as cofactor for oxidation of secondary alcohols [1]: not effective

SMILES: O=[N+]([O-])[O-].[Ag+] [silver nitrate]
- inhibition of secondary alcohol dehydrogenase activity [6]: inhibited

SMILES: NC(=O)c1ccc[n+]([C@@H]2O[C@H](COP(=O)([O-])OP(=O)(O)OC[C@H]3O[C@@H](n4cnc5c(N)ncnc54)[C@H](OP(=O)(O)O)[C@@H]3O)[C@@H](O)[C@H]2O)c1 [NADP]
- electron acceptor / carrier [2]: could not act as electron carrier
- effectiveness as cofactor for oxidation of secondary alcohols [1]: not effective

SMILES: O=S(=O)([O-])[O-].[Cu+2] [Cupric Sulfate]
- inhibition of secondary alcohol dehydrogenase activity [6]: inhibited
- Methane-Oxidizing Activity ([7]; control 4.0): 7.1 μmoles/hr/mg protein
- Propylene-Oxidizing Activity ([7]; control […]): 9.0 μmoles/hr/mg protein

SMILES: c1c[nH]cn1 [Imidazole]
- inhibition of secondary alcohol dehydrogenase activity [6]: strongly inhibited

SMILES: O=C1C(Cl)=CC(=Nc2ccc(O)cc2)C=C1Cl [dichlorophenol indophenol]
- electron acceptor / carrier [2]: could not act as electron carrier
- effectiveness as cofactor for oxidation of secondary alcohols [1]: not effective

SMILES: c1ccc(-c2ccccn2)nc1 [α,α-Bipyridyl]
- % inhibition of SADH activity [3]: 70%
- % Inhibition, Methane-Hydroxylating Activity [4]: 99%
- % Inhibition, Propylene-Epoxidizing Activity [4]: 98%
- inhibition of conversion of n-alkanes to sec. alcohols [5]: inhibited

SMILES: N#C[S][Hg][S]C#N [mercuric thiocyanate]
- inhibition of secondary alcohol dehydrogenase activity [6]: inhibited

SMILES: NNC(N)=S [Thiosemicarbazide]
- % Inhibition, Methane-Hydroxylating Activity [4]: 100%
- % Inhibition, Propylene-Epoxidizing Activity [4]: 97%
- inhibition of conversion of n-alkanes to sec. alcohols [5]: inhibited

SMILES: c1cnc2c(c1)ccc1cccnc12 [1,10-Phenanthroline]
- inhibition of secondary alcohol dehydrogenase activity [6]: strongly inhibited
- % inhibition of SADH activity [3]: 95%
- % Inhibition, Methane-Hydroxylating Activity [4]: 90%
- % Inhibition, Propylene-Epoxidizing Activity [4]: 93%
- inhibition of conversion of n-alkanes to sec. alcohols [5]: inhibited

SMILES: NC(=O)c1ccc[n+]([C@@H]2O[C@H](COP(=O)([O-])OP(=O)(O)OC[C@H]3O[C@@H](n4cnc5c(N)ncnc54)[C@H](O)[C@@H]3O)[C@@H](O)[C@H]2O)c1 [NAD, Nicotinamide adenine dinucleotide]
- electron acceptor / carrier [2]: required
- effectiveness as cofactor for oxidation of secondary alcohols [1]: requirement; also recorded: required

SMILES: Oc1cccc2cccnc12 [8-Hydroxyquinoline]
- % Inhibition, Methane-Hydroxylating Activity [4]: 80%
- % Inhibition, Propylene-Epoxidizing Activity [4]: 75%
- inhibition of conversion of n-alkanes to sec. alcohols [5]: inhibited

SMILES: C[n+]1c2ccccc2nc2ccccc21 [phenazine methosulfate]
- electron acceptor / carrier [2]: could not act as electron carrier
- effectiveness as cofactor for oxidation of secondary alcohols [1]: not effective
